Data on two compounds can be found in patent EP0070331A2, “Cephalosporin derivatives, their preparation, compositions containing them, and their use in the treatment of diseases” (F. HOFFMANN-LA ROCHE & CO. Aktiengesellschaft, priority 1981, dated 1983).

Each structure is given as a SMILES string.

Series [1] deals with Serratia marcescens. The series is described as follows: Curative dose (CD50) in infected mice, Serratia marcescens. The class given is in vivo. The settings on record: Maus, dose at which 50% of mice survive. An excerpt:
(§1) Die orale antimikrobielle Wirksamkeit der erfindungsgemässen Produkte kann anhand von in vivo-Versuchen an der Maus nachgewiesen werden.

Series [2] relates to Streptococcus pyogenes. The series is described as follows: Curative dose (CD50) in infected mice, Streptococcus pyogenes. The class given is in vivo. The settings on record: Maus, dose at which 50% of mice survive.
The test system of series [3] is Escherichia coli. The series is described as follows: Curative dose (CD50) in infected mice, Escherichia coli. It counts as in vivo. To be noted: Maus, dose at which 50% of mice survive.
The subject of series [4] is Neisseria meningitidis. The series is described as follows: Curative dose (CD50) in infected mice, Neisseria meningitidis. The settings on record: po, Maus, dose at which 50% of mice survive. The class given is in vivo.
Text: as §1

A short description of series [5]: Blood levels after oral administration in the rat. The settings on record: Ratte, orale Dosis 20 mg/kg, read-out: Antibiotikumkonzentration im Blut. The class given is in vivo.
Text: ..Die nach oraler Gabe erzielten Blutspiegelwerte ergeben sich gemäss folgendem Vergleich an der Ratte.
The nature of series [6]: in vivo. To be noted: mouse, po.

As to `CC1=C(C(=O)O)N2C(=O)[C@@H](NC(=O)[C@H](N)c3ccccc3)[C@H]2SC1` [Cephalexin], the ED50 in series [1] (po) is over 50 mg/kg; in series [1] (sc), over 50 mg/kg; in series [2] (po), 1.8 mg/kg; in series [2] (sc) it was 1.2 mg/kg; in series [3] (po), 3.2 mg/kg; in series [3] (sc), 2.1 mg/kg. This compound also gave an ED50 in series [4] of 1.2 mg/kg.

Consider `CO/N=C(\C(=O)N[C@@H]1C(=O)N2C(C(=O)OCOC(=O)C(C)(C)C)=C(CSc3nc(C(=O)OCOC(=O)C(C)(C)C)nn3C)CS[C@H]12)c1csc(N)n1` [Produkt A, Methylen (6R,7R)-7-[2-(2-Amino-4-thiazolyl)-2-[ (Z)-methoxyimino]-acetamido]-3-[[[2-methyl-5-[[(pivaloyloxy)methoxy]carbonyl]-2H-1,2,4-triazol-3-yl]thio]methyl]-8-oxo-5-thia-1-azabicyclo[4.2.0]oct-2-en-2-carboxylat-pivalat], for which, in series [5] (after 15 min), the concentration at 0.25 h was determined as 6000 ng/mL. For the same compound, the concentration at 0.5 h in series [5] (after 30 min) is 12000 ng/mL. For the same compound, the concentration at 0.75 h in series [5] (after 45 min) came out at 12000 ng/mL. In addition, the concentration at 1 h in series [5] (after 60 min) came out at 10000 ng/mL. In addition, the concentration at 1.5 h in series [5] (after 90 min) turned out to be 8000 ng/mL. For the same compound, in series [5] (after 150 min), the concentration at 2.5 h came to 5000 ng/mL. Also, the ED50 in series [1] (po) turned out to be 0.68 mg/kg; in series [1] (sc) it was 0.05 mg/kg; in series [2] (po), 0.95 mg/kg; in series [4], 0.14 mg/kg. Also, the LD50 at 24 h in series [6] was over 4000 mg/kg.
